“Also recorded” adds a separate entry of the source.
How the values were obtained:
[1] = Colour difference of iron fortified strawberry-banana yoghurt after flash pasteurization versus yoghurt with no iron salts (CIELAB); format: physicochemical; conditions: approx. 0.8 mg iron per 100 g, pasteurized at 105° C. for 2 minutes
Description: Commercial yoghurt, Nestlé Jogolino™ Strawberry/Banana yoghurt containing 15% banana puree and 10% strawberry puree was iron fortified by the addition of different iron salts to 5 kg yoghurt as reported in the table below. The amounts were chosen to provide approximately 0.8 mg iron per 100 g yoghurt. […] Colour measurements were performed in 1×1 cm polystyrene cuvettes using an X-Rite ColorEye 7000A colorimeter. The colorimeter was set up with a D65 light source, 10 degree observer angle and with specular component included. The colour difference between the yoghurt with no iron salts and the iron fortified yoghurt was measured for each iron salt and expressed as ΔEab* using the CIELAB colour scale.

[2] = Colour change of fortified pasteurized yoghurts on storage at 37° C. versus colour immediately after pasteurization (CIELAB); format: physicochemical; conditions: stored at 37° C.; for ΔEab* day 7: day 7, versus colour immediately after pasteurization; for ΔEab* day 30: day 30, versus colour immediately after pasteurization; for ΔEab* day 60: day 60, versus colour immediately after pasteurization; for ΔEab* day 120: day 120, versus colour immediately after pasteurization

Compound | ΔEab* [1] | ΔEab* ([1]; listed as ferrous picolinate) | ΔEab* day 7 [2] | ΔEab* day 30 [2] | ΔEab* day 60 [2] | ΔEab* day 120 [2] | colour change over time ([2]; up to 120 days, compared with the other iron salts) | ΔEab* day 30 ([2]; listed as ferrous sulphate)
Ferrous picolinate | 1.28 | closer in colour to unfortified yoghurts; also recorded: closest colour to the yoghurt with no added iron | 0.51 | 2.18 | 4.66 | 8.19 | smaller than the yoghurts fortified by the other iron salts | –
O=C([O-])CN(CCN(CC(=O)[O-])CC(=O)[O-])CC(=O)[O-].[Fe+3].[Na+] [NaFeEDTA × H2O, ferric sodium EDTA] | 3.11 | – | 0.96 | 4.16 | 6.93 | 9.37 | – | –
O=S(=O)([O-])[O-].[Fe+2] [FeSO4 × H2O, Ferrous sulphate] | 4.74 | – | 0.78 | 3.27 | 5.91 | 10.34 | – | much greater colour changes

Reference: patent US20160309764A1, “FOOD COMPOSITION COMPRISING FERROUS PICOLINATE” (NESTEC S.A., priority 2013, published 2016)
